Experimental data taken from patent publication US20140005165A1, “SUBSTITUTED 3-AZABICYCLO[3.1.0]HEXANE DERIVATIVES USEFUL AS CCR2 ANTAGONISTS” (priority 2011, published 2014).
pIC50: −log10 of the molar value.

The compounds below were run against T1, human CCR2 (Homo sapiens, UniProt P41597) (assay: CCR2 Membrane Binding Assay (SPA radio-ligand binding, 125I-rhMCP-1)). Settings: membranes from Ba/F3 cells transfected with human CCR2; 0.03 nM 125I-rhMCP-1; 4 h room temperature.
T1 construct: expressed in transfected cells; host or cells: Ba/F3 cells (membrane preparation)
T1 sequence (P41597 whole entry): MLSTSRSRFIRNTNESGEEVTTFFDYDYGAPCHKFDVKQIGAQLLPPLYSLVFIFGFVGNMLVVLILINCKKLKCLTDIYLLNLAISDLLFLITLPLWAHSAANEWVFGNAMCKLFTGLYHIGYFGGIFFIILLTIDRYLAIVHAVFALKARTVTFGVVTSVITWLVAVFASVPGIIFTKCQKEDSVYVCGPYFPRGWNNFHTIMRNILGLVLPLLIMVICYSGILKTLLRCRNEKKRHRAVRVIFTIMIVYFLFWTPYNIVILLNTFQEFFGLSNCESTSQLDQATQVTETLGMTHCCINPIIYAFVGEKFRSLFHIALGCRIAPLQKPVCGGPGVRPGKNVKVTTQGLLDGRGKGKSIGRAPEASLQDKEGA
Experimental: The radio-ligand binding assay was done using scintillation proximity assay (SPA) technology. Briefly, membranes (1 μg per assay point) from Ba/F3 cells transfected with human CCR2, and wheat germ agglutinin-coated SPA beads (80 μg per point; Amersham, Arlington Heights, Ill.), were pre-incubated for 30 min at room temperature in CCR2 buffer (50 mM HEPES (pH=7.4), 10 mM MgCl2, 10 mM NaCl, 1 mM CaCL2, 0.1% BSA, 10 μg/ml Saponin). At this point pre-bound SPA bead, membrane complex was incubated at room temperature for 4 h with varying concentrations of punitive CCR2 antagonists (in 1% DMSO, final) and 0.03 nM ^125I-rhMCP-1 in CCR2Buffer (S.A. 2200 Ci/mmol, PerkinElmer Life and Analytical Science, Boston, Mass.; NEX332). Binding competition was measured using a 1450 Microbeta Trilux counter (Wallac, Gaithersburg, Md.). Binding constants (IC50 and slope) were calculated using GraphPad Prism software (GraphPad Software, Inc., La Jolla Calif.).
Compound `O=C(CNC(=O)[C@H]1[C@@H]2CN([C@H]3CC[C@@H](c4ccc(O)cc4)CC3)C[C@@H]21)Nc1cccc(C(F)(F)F)c1` [Compound 114] has a pIC50 of 8.51.
`O=C(CNC(=O)[C@H]1[C@@H]2CN(C3CCC(O)(c4nccs4)CC3)C[C@@H]21)Nc1cccc(C(F)(F)F)c1` (stereo partly drawn) [Compound 120] showed a pIC50 of 8.41.
With `O=C(CNC(=O)[C@H]1[C@@H]2CN([C@H]3CC[C@@H](c4ccc5c(c4)OCO5)CC3)C[C@@H]21)Nc1cccc(C(F)(F)F)c1` [Compound 143] the pIC50 was 8.39.
`Cn1cc([C@H]2CC[C@@H](N3C[C@@H]4[C@H](C3)[C@H]4C(=O)NCC(=O)Nc3cccc(C(F)(F)F)c3)CC2)cn1` [Compound 94] gave a pIC50 of 7.87.
For `O=C(CNC(=O)[C@H]1[C@@H]2CN([C@H]3CC[C@@H](NC(=O)OCc4ccccc4)CC3)C[C@@H]21)Nc1cccc(C(F)(F)F)c1` [Compound 154], the pIC50 was 8.08.
With `COc1ncc([C@H]2CC[C@@H](N3C[C@@H]4[C@H](C3)[C@H]4C(=O)NCC(=O)Nc3cccc(C(F)(F)F)c3)CC2)c(OC)n1` [Compound 153] the pIC50 was 8.35.
Compound `O=C(CNC(=O)[C@H]1[C@@H]2CN([C@H]3CC[C@@H](c4ccccn4)CC3)C[C@@H]21)Nc1cccc(C(F)(F)F)c1` [Compound 81] has a pIC50 of 8.74.
`O=C(CNC(=O)[C@H]1[C@@H]2CN([C@H]3CC[C@@H](c4ccsc4)CC3)C[C@@H]21)Nc1cccc(C(F)(F)F)c1` [Compound 97] showed a pIC50 of 8.43.

Same assay, conditions: membranes from Ba/F3 cells transfected with human CCR2; 0.03 nM 125I-rhMCP-1; class symbols
Work on `O=C(CNC(=O)[C@H]1[C@@H]2CN(C3CCC(O)(c4cncs4)CC3)C[C@@H]21)Nc1cccc(C(F)(F)F)c1` (stereo partly drawn) [Compound 123] yielded a pIC50 of 6.15 to 6.70.
`O=C(CNC(=O)[C@H]1[C@@H]2CN(C3CCC(O)CC3)C[C@@H]21)Nc1cccc(C(F)(F)F)c1` (stereo partly drawn) [Compound 34] gave a pIC50 of 6.15 to 6.70.
`CC(C)N1C[C@@H]2C(C(=O)NCCc3cccc(C(F)(F)F)c3)[C@@H]2C1` (stereo partly drawn) [Compound 18] showed a pIC50 of 6.15 to 6.70.
`O=C(NC1CCc2ccc(F)cc2C1)[C@H]1[C@@H]2CN([C@H]3CC[C@@H](c4ccccc4)CC3)C[C@@H]21` (stereo partly drawn) [Compound 36] showed a pIC50 of 6.15 to 6.70.
`O=C([C@H]1[C@@H]2CN([C@H]3CC[C@@H](c4ccccc4)CC3)C[C@@H]21)N1CCc2ncc(C(F)(F)F)cc2C1` [Compound 61] was tested, and the pIC50 was 6.15 to 6.70.
With `CC1CCC(N2C[C@@H]3[C@H](C2)[C@H]3C(=O)NCC(=O)Nc2cccc(C(F)(F)F)c2)C1` (stereo partly drawn) [Compound 19] the pIC50 was 6.15 to 6.70.
Work on `O=C(CNC(=O)[C@H]1[C@@H]2CN(C3CCCOC3)C[C@@H]21)Nc1cccc(C(F)(F)F)c1` (stereo partly drawn) [Compound 22] yielded a pIC50 of 6.70 to 7.29.
For `O=C(CNC(=O)[C@H]1[C@@H]2CN(C3CC3)C[C@@H]21)Nc1cccc(C(F)(F)F)c1` [Compound 78], the pIC50 was 6.15 to 6.70.
With `COC1CCC(N2C[C@@H]3[C@H](C2)[C@H]3C(=O)NCC(=O)Nc2cccc(C(F)(F)F)c2)CC1` (stereo partly drawn) [Compound 39] the “IC50 (nM)” value was “D (compounds with IC50 values between 701 nM and 110 nM are designated as D class compounds)”.
`CC(C)(C)OC(=O)[C@H]1CC[C@@H](N2C[C@@H]3[C@H](C2)[C@H]3C(=O)NCC(=O)Nc2cccc(C(F)(F)F)c2)CC1` [Compound 124] showed a pIC50 of 6.15 to 6.70.
For `O=C(CNC(=O)[C@H]1[C@@H]2CN([C@H]3CC[C@@H](c4cc(Br)c(O)c(Br)c4)CC3)C[C@@H]21)Nc1cccc(C(F)(F)F)c1` [Compound 163], the pIC50 was over 7.30.
For `N#Cc1ccc([C@H]2CC[C@@H](N3C[C@@H]4[C@H](C3)[C@H]4C(=O)NCC(=O)Nc3cccc(C(F)(F)F)c3)CC2)cc1` [Compound 126], the pIC50 was over 7.30.
Compound `O=C([C@H]1[C@@H]2CN([C@H]3CC[C@@H](c4ccccc4)CC3)C[C@@H]21)N1CCC(Nc2ncc(C(F)(F)F)cn2)C1` (stereo partly drawn) [Compound 113] has a pIC50 of 6.15 to 6.70.
Compound `CC(=O)NC1CCC(N2C[C@@H]3[C@H](C2)[C@H]3C(=O)NCC(=O)Nc2cccc(C(F)(F)F)c2)CC1` (stereo partly drawn) [Compound 55] has a pIC50 of 6.15 to 6.70.
`O=C([C@H]1[C@@H]2CN([C@H]3CC[C@@H](c4ccccc4)CC3)C[C@@H]21)N1CC(c2cccc(C(F)(F)F)c2)C1` [Compound 59] was tested, and the pIC50 was 6.15 to 6.70.
`O=C(CNC(=O)[C@H]1[C@@H]2CN([C@H]3CC[C@@H](C4Cc5ccccc5O4)CC3)C[C@@H]21)Nc1cccc(C(F)(F)F)c1` (stereo partly drawn) [Compound 140] was tested, and the pIC50 was 6.15 to 6.70.
In the case of `O=C(CNC(=O)C1C2CN(C3CCOCC3)CC21)Nc1cccc(C(F)(F)F)c1` (stereo not drawn) [Compound 21], the pIC50 was 6.70 to 7.29.
For `O=C([C@H]1[C@@H]2CN([C@H]3CC[C@@H](c4ccccc4)CC3)C[C@@H]21)N1CCC(c2cccc(C(F)(F)F)c2)CC1` [Compound 106], the “IC50 (nM)” value was “D (compounds with IC50 values between 701 nM and 110 nM are designated as D class compounds)”.
Work on `COc1ccc(C[C@H]2CC[C@@H](N3C[C@@H]4[C@H](C3)[C@H]4C(=O)NCC(=O)Nc3cccc(C(F)(F)F)c3)CC2)cc1` [Compound 145] yielded a pIC50 of 6.70 to 7.29.
Compound `O=C(CNC(=O)[C@H]1[C@@H]2CN([C@H]3CC[C@@H](c4cnn(Cc5ccccc5)c4)CC3)C[C@@H]21)Nc1cccc(C(F)(F)F)c1` [Compound 157] has a pIC50 of over 7.30.
In the case of `O=C1CC2CC(N3C[C@@H]4[C@H](C3)[C@H]4C(=O)NCC(=O)Nc3cccc(C(F)(F)F)c3)CC2C1` (stereo partly drawn) [Compound 44], the pIC50 was 6.15 to 6.70.
For `CC1CCC(N2C[C@@H]3[C@H](C2)[C@H]3C(=O)NCC(=O)Nc2cccc(C(F)(F)F)c2)CC1` (stereo partly drawn) [Compound 30], the pIC50 was 6.70 to 7.29.
For `O=C(CNC(=O)[C@H]1[C@@H]2CN(C3CC[C@H](c4ccccc4)C3)C[C@@H]21)Nc1cccc(C(F)(F)F)c1` (stereo partly drawn) [Compound 64], the pIC50 was 6.70 to 7.29.
`O=C(CNC(=O)[C@H]1[C@@H]2CN([C@H]3CC[C@H](Nc4ccc(F)c(F)c4)CC3)C[C@@H]21)Nc1cccc(C(F)(F)F)c1` [Compound 149] gave a pIC50 of 6.15 to 6.70.
With `O=C(CNC(=O)[C@H]1[C@@H]2CN([C@H]3CC[C@H](c4ccccc4)CC3)C[C@@H]21)Nc1cccc(C(F)(F)F)c1` [Compound 79] the “IC50 (nM)” value was “D (compounds with IC50 values between 701 nM and 110 nM are designated as D class compounds)”.
In the case of `O=C(CNC(=O)[C@H]1[C@@H]2CN(C3C[C@@H]4CC[C@H]3C4)C[C@@H]21)Nc1cccc(C(F)(F)F)c1` (stereo partly drawn) [Compound 27], the pIC50 was 6.70 to 7.29.
With `CC(C1CC1)N1C[C@@H]2[C@H](C1)[C@H]2C(=O)NCC(=O)Nc1cccc(C(F)(F)F)c1` (stereo partly drawn) [Compound 12] the pIC50 was 6.15 to 6.70.
With `CC(C)(C)C1CCC(N2C[C@@H]3[C@H](C2)[C@H]3C(=O)NCC(=O)Nc2cccc(C(F)(F)F)c2)CC1` (stereo partly drawn) [Compound 54] the “IC50 (nM)” value was “D (compounds with IC50 values between 701 nM and 110 nM are designated as D class compounds)”.
`Cn1ccnc1C1CCC(N2C[C@@H]3[C@H](C2)[C@H]3C(=O)NCC(=O)Nc2cccc(C(F)(F)F)c2)CC1` (stereo partly drawn) [Compound 95] was tested, and the pIC50 was 6.70 to 7.29.
Work on `CC1CCCC(N2C[C@@H]3[C@H](C2)[C@H]3C(=O)NCC(=O)Nc2cccc(C(F)(F)F)c2)C1` (stereo partly drawn) [Compound 32] yielded a pIC50 of 6.15 to 6.70.
Work on `O=C([C@H]1[C@@H]2CN([C@H]3CC[C@@H](c4ccccc4)CC3)C[C@@H]21)N1CCC(c2cccc(C(F)(F)F)c2)C1` (stereo partly drawn) [Compound 71] yielded a pIC50 of over 7.30.
`COc1ncc([C@H]2CC[C@@H](N3C[C@@H]4[C@H](C3)[C@H]4C(=O)NCC(=O)Nc3cccc(C(F)(F)F)c3)CC2)cn1` [Compound 133] showed a pIC50 of over 7.30.
For `O=C(NCCc1cccc(C(F)(F)F)c1)C1[C@H]2CN(C3CCCOC3)C[C@@H]12` (stereo partly drawn) [Compound 162], the pIC50 was 6.15 to 6.70.
In the case of `Cc1[nH]c2c(C(F)(F)F)cccc2c1CCNC(=O)[C@H]1[C@@H]2CN([C@H]3CC[C@@H](c4ccccc4)CC3)C[C@@H]21` [Compound 125], the pIC50 was 6.15 to 6.70.
Work on `O=C(CNC(=O)[C@H]1[C@@H]2CN([C@H]3CC[C@@H](c4cccs4)CC3)C[C@@H]21)Nc1cccc(C(F)(F)F)c1` [Compound 98] yielded a pIC50 of over 7.30.
Compound `O=C(CNC(=O)[C@H]1[C@@H]2CN([C@H]3CC[C@H](c4ccc(O)cc4)CC3)C[C@@H]21)Nc1cccc(C(F)(F)F)c1` [Compound 115] has a pIC50 of over 7.30.
`O=C(N[C@@H]1CCN(c2nccc(C(F)(F)F)n2)C1)[C@H]1[C@@H]2CN([C@H]3CC[C@@H](c4ccccc4)CC3)C[C@@H]21` [Compound 112] gave a pIC50 of 6.15 to 6.70.
`CC(C)(C)OC(=O)N[C@H]1CC[C@@H](N2C[C@@H]3[C@H](C2)[C@H]3C(=O)NCC(=O)Nc2cccc(C(F)(F)F)c2)CC1` [Compound 136] was tested, and the pIC50 was 6.70 to 7.29.
Work on `O=C(CNC(=O)[C@H]1[C@@H]2CN([C@H]3CC[C@H](c4ccsc4)CC3)C[C@@H]21)Nc1cccc(C(F)(F)F)c1` [Compound 99] yielded a pIC50 of 6.70 to 7.29.
`O=C(CNC(=O)[C@H]1[C@@H]2CN(C3CC[C@@H](c4ccccc4)C3)C[C@@H]21)Nc1cccc(C(F)(F)F)c1` (stereo partly drawn) [Compound 65] was tested, and the pIC50 was 6.15 to 6.70.
Compound `O=C(NCCc1cccc(C(F)(F)F)c1)C1[C@H]2CN(C3CCCCC3)C[C@@H]12` (stereo partly drawn) [Compound 1] has a pIC50 of 6.70 to 7.29.
In the case of `O=C(NCCc1cc(C(F)(F)F)cc(C(F)(F)F)c1)[C@H]1[C@@H]2CN([C@H]3CC[C@@H](c4ccccc4)CC3)C[C@@H]21` [Compound 135], the pIC50 was 6.15 to 6.70.
`O=C([C@H]1[C@@H]2CN([C@H]3CC[C@@H](c4ccccc4)CC3)C[C@@H]21)N1CC(Oc2ccc(C(F)(F)F)cc2)C1` [Compound 76] was tested, and the “IC50 (nM)” value was “D (compounds with IC50 values between 701 nM and 110 nM are designated as D class compounds)”.
